Results from patent US20030220376A1, “Methods for treating carbonic anhydrase mediated disorders” (Pharmacia Corporation, priority 2001, published 2003).
pIC50: −log10 of the molar value. Where “and” joins values, the source holds several entries; their conditions need not be identical. Identical values can stand only once. Like-named read-outs stand apart in the source and are kept apart here.

Target: T1, human carbonic anhydrase II (Homo sapiens, UniProt P00918)
T1 construct: purchased Sigma C-6165
Assay: Carbonic anhydrase II inhibition assay (p-nitrophenol acetate, absorbance at 405 nm)
Assay type: biochemical
Conditions: for IC50: Table 2
Procedure: Final concentrations of each inhibitor ranged from 1 picomolar to 1 micromolar. Control samples that included either no inhibitor or no enzyme were also performed.
The admixture of substrate and enzyme initiates the enzyme reaction. […] The inhibition at each inhibitor concentration was measured in triplicate. The IC50 value was then derived using the GraphPad Prism curve fitting software. […] The compound number listed in Table 2 and 3 corresponds with the same compound number detailed in Table 1.

[1] = single values of the N determinations, read-out: CA Assay IC50 (μM), individual determinations in parentheses
[2] = read-out: IC50 for inhibition of CA II activity
[3] = overall value of N determinations, read-out: CA Assay IC50 (μM) and concentration of inhibitor added
[4] = Table 3, mean, read-out: Mean IC50

pIC50 [4] | Compound | also measured
– | Cc1ccc(-c2cc(C(F)(F)F)n(-c3ccc(S(N)(=O)=O)cc3)n2)cc1 [Compound 1] | IC50 [1]: 0.015 µM and 0.021 µM and 0.004 µM; pIC50 [2]: 8.00
– | CCCCOc1ccc(-c2cc(C(F)(F)F)nn2-c2ccc(S(N)(=O)=O)cc2)cc1 [Compound 2] | IC50 [3]: 0.04 µM; IC50 [1]: 0.03 µM and 0.04 µM
– | NS(=O)(=O)c1ccc(-n2nc(-c3ccccc3)cc2-c2ccccc2)cc1 [Compound 3] | IC50 [3]: 0.04 µM
– | CC(=O)SCc1cc(-c2ccc(Cl)cc2)n(-c2ccc(S(N)(=O)=O)cc2)n1 [Compound 4] | IC50 [3]: 0.09 µM
– | C=C1N[C@@H]2[C@@H](CS[C@@H]2CCCCC(=O)NCCOCCOCCNC(=O)CSCc2cc(-c3ccc(Cl)cc3)n(-c3ccc(S(N)(=O)=O)cc3)n2)N1 [Compound 6] | IC50 [3]: 0.18 µM
6.71 | NC(=O)c1nn(-c2ccc(S(N)(=O)=O)cc2)c2c1CCc1cnccc1-2 [Compound 8] | –
7.48 | COC(=O)C1c2ccccc2-c2c1cnn2-c1ccc(S(N)(=O)=O)cc1 (stereo not shown) [Compound 9] | –
6.33 | NC(=O)c1nn(-c2ccc(S(N)(=O)=O)cc2)c2c1C[S+]([O-])c1ccccc1-2 (stereo not shown) [Compound 12] | –
7.15 | CC1CCc2c(c(C(=O)O)nn2-c2ccc(S(N)(=O)=O)cc2)C1 (stereo not shown) [Compound 13] | –
6.99 | NC(=O)c1nn(-c2ccc(S(N)(=O)=O)cc2)c2c1CNc1ccccc1-2 [Compound 14] | –
8.25 | CCOC(=O)c1nn(-c2ccc(S(N)(=O)=O)cc2)c2c1CCC=C2 [Compound 15] | –
7.47 | CS(=O)(=O)Nc1cccc(-c2cc(C(N)=O)nn2-c2ccc(S(N)(=O)=O)cc2)c1 [Compound 16] | –
6.74 | CN(C)/C=N/c1cccc(-c2cc(C(N)=O)nn2-c2ccc(S(N)(=O)=O)cc2)c1 [Compound 17] | –
6.60 | NS(=O)(=O)c1ccc(-n2ncc3c2-c2ccncc2CC3)cc1 [Compound 18] | –
7.11 | CNC(=O)c1nn(-c2ccc(S(N)(=O)=O)cc2)c2c1CCc1[nH]ncc1-2 [Compound 19] | –
6.36 | COCC(=O)Nc1ccc2c(c1)-c1c(c(C(N)=O)nn1-c1ccc(S(N)(=O)=O)cc1)CC2 [Compound 20] | –
5.91 | NC(=O)c1nn(-c2ccc(S(N)(=O)=O)cc2)c2c1CCc1cn(CCO)nc1-2 [Compound 21] | –
5.91 | NS(=O)(=O)c1ccc(-n2nc(C(=O)O)c3c2-c2cn[nH]c2CC3)cc1 [Compound 22] | –
6.69 | CCOc1cccc2c(C(N)=O)nn(-c3ccc(S(N)(=O)=O)cc3)c12 [Compound 23] | –
7.22 | NC(=O)c1nn(-c2ccc(S(N)(=O)=O)cc2)c2c1CCc1cnc(N)nc1-2 [Compound 24] | –
5.54 | C#CCN(CC#C)S(=O)(=O)c1ccc(-n2nc(C(N)=O)c3c2-c2nc(N)ncc2CC3)cc1 [Compound 25] | –
7.10 | NC(=O)c1cc(-c2ccco2)n(-c2ccc(S(N)(=O)=O)cc2)n1 [Compound 26] | –
6.38 | NC(=O)c1cc(-c2ccncc2)n(-c2ccc(S(N)(=O)=O)cc2)n1 [Compound 27] | –
6.28 | NC(=O)c1cc(-c2cccnc2)n(-c2ccc(S(N)(=O)=O)cc2)n1 [Compound 28] | –
6.90 | NC(=O)c1cc(-c2ccccn2)n(-c2ccc(S(N)(=O)=O)cc2)n1 [Compound 29] | –
7.66 | NC(=O)c1nn(-c2ccc(S(N)(=O)=O)cc2)c2c1CCC=C2 [Compound 30] | –
6.62 | COC(=O)c1cc(-c2ccc(OC)cc2)n(-c2ccc(S(N)(=O)=O)cc2)n1 [Compound 31] | –
6.74 | COC(=O)c1cc(-c2ccccc2)n(-c2ccc(S(N)(=O)=O)cc2)n1 [Compound 32] | –

pIC50 [4] | Compound | also measured
7.41 | NS(=O)(=O)c1ccc(-n2nc(C(F)(F)F)cc2-c2cccnc2)cc1 [Compound 33] | –
7.74 | COC(C)Cc1cc(C(F)F)nn1-c1ccc(S(N)(=O)=O)cc1 (stereo not shown) [Compound 34] | –
7.74 | C/C=C/c1cc(C(F)F)nn1-c1ccc(S(N)(=O)=O)cc1 [Compound 35] | –
7.33 | COC(C)(C)Cc1cc(C(F)F)nn1-c1ccc(S(N)(=O)=O)cc1 [Compound 36] | –
6.22 | NS(=O)(=O)c1ccc(-n2nc(C(=O)O)cc2-c2ccccc2)cc1 [Compound 37] | –
6.68 | NC(=O)c1cc(-c2ccccc2)n(-c2ccc(S(N)(=O)=O)cc2)n1 [Compound 38] | –
6.59 | COc1ccc(-c2cc(C(N)=O)nn2-c2ccc(S(N)(=O)=O)cc2)cc1 [Compound 39] | –
6.48 | CNC(=O)c1cc(-c2ccc(OC)cc2)n(-c2ccc(S(N)(=O)=O)cc2)n1 [Compound 41] | –
5.31 | COc1ccc(-c2cc(C(=O)O)nn2-c2ccc(S(N)(=O)=O)cc2)cc1 [Compound 42] | –
6.69 | COc1ccc(-c2ccnn2-c2ccc(S(N)(=O)=O)cc2)cc1 [Compound 43] | –
7.10 | NS(=O)(=O)c1ccc(-n2nc(C(=O)NCC(=O)O)cc2-c2ccc(Cl)cc2)cc1 [Compound 44] | –
7.37 | NS(=O)(=O)c1ccc(-n2nc(C(F)(F)F)c3c2-c2ccccc2[S+]([O-])C3)cc1 (stereo not shown) [Compound 45] | –
7.22 | COc1ccc2c(c1F)C[S+]([O-])c1c(C(F)(F)F)nn(-c3ccc(S(N)(=O)=O)cc3)c1-2 (stereo not shown) [Compound 46] | –
7.17 | NS(=O)(=O)c1ccc(-n2nc(CO)cc2-c2ccc(O)cc2)cc1 [Compound 47] | –
7.09 | NS(=O)(=O)c1ccc(-n2nc(C(F)(F)F)cc2O)cc1 [Compound 48] | –
8.06 | COc1cc(C(F)(F)F)nn1-c1ccc(S(N)(=O)=O)cc1 [Compound 49] | –
7.77 | CC(C)Oc1cc(C(F)(F)F)nn1-c1ccc(S(N)(=O)=O)cc1 [Compound 50] | –
7.45 | NC(=O)c1nn(-c2ccc(S(N)(=O)=O)cc2)c2c1CSCC2 [Compound 51] | –
7.98 | NS(=O)(=O)c1ccc(-n2nc(C(F)(F)F)cc2C(=O)C(=O)c2ccccc2)cc1 [Compound 53] | –
6.96 | NS(=O)(=O)c1ccc(-n2ncc(C(F)(F)F)c2-c2ccccc2)cc1 [Compound 56] | –
6.86 | NS(=O)(=O)c1ccc(-n2nc(C(F)(F)F)cc2C2CCNCC2)cc1 [Compound 57] | –
6.41 | CNC(=O)c1nn(-c2ccc(S(N)(=O)=O)cc2)cc1-c1ccccc1 [Compound 58] | –
8.46 | Cc1ccc(-c2cc(C(F)(F)F)n(-c3ccc(S(N)(=O)=O)cc3)n2)cc1 [Compound 63] | –
7.09 | NS(=O)(=O)c1ccc(-n2nc(C(F)(F)F)cc2O)cc1 [Compound 65] | –
– | CS(=O)(=O)c1ccc(-n2nccc2-c2ccc(F)cc2)cc1 [IX, reference compound] | IC50 [3]: > 100 µM
– | CS(=O)(=O)c1ccc(C2=C(c3ccccc3)C(=O)OC2)cc1 [VIII, Rofecoxib, reference compound] | IC50 [3]: > 100 µM; pIC50 [2]: < 4.00
– | O=C(c1ccc(-n2nc(C(F)(F)F)cc2-c2ccc(F)cc2)cc1)C(F)(F)F [X, reference compound] | IC50 [3]: > 100 µM
